From patent publication US20260055083A1, “APOL1 INHIBITORS AND METHODS OF USE” (Maze Therapeutics, Inc., priority 2022, published 2026) come the findings set out here.

SMILES strings stand for the structures. pEC50: −log10 of the molar value. Some results are limits rather than exact numbers.

The target in assay [1] is T1, APOL1 G2 (Homo sapiens, UniProt O14791, DEL388-389).
T1 construct: expressed in transfected cells; host or cells: HEK293/T-REx APOL1 G2 clone #2, doxycycline-inducible
T1 sequence (O14791 with tags, fused parts or gaps DEL388-389): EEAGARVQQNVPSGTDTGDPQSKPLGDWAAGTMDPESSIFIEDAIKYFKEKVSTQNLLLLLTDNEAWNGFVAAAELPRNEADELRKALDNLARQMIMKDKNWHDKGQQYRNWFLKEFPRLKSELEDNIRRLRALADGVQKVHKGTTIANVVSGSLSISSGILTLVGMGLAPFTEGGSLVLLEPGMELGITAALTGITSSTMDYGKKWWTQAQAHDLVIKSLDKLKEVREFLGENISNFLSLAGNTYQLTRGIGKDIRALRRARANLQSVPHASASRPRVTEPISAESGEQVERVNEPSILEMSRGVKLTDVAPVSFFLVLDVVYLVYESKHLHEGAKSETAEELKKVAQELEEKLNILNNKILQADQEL
Briefly: APOL1 G2 HEK293 rescue of cell death caused by overexpression of APOL1 (CellTiter-Glo). Type of assay: cell-based. Conditions: HEK293/T-REx APOL1 G2 clone #2, doxycycline induction, 17 hours, CellTiter-Glo luminescence; reversal of cell death; geometric mean of at least 2 assay runs. The method in brief: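 Viability read by CellTiter-Glo luminescence after 17 h, 37 °C, in HEK293/T-REx cells expressing APOL1 G2 on 6 ng/mL doxycycline, 5,000 cells/well. Compounds tested as duplicate 8-point, 3-fold dilutions, 0.5% DMSO final; four-parameter logistic EC50, usually geometric mean of ≥2 days.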
(In ATP-based viability assays light output follows the ATP content of the culture.)

For assay [2], the target named is T1, APOL1 G2. The experiment in a line: APOL1 G2 FLIPR calcium influx assay (HEK T-REx/GCaMP6f/APOL1 G2 K6.3 cells). The format is cell-based. Conditions: HEK293 clone expressing GCaMP6f, doxycycline-induced APOL1 G2; prevention of calcium influx; geometric mean of at least 2 assay runs. The essentials:
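Cells express GCaMP6f stably and APOL1 G2 after a 6 h doxycycline induction. Duplicate 8-point dilutions sit 10 min at room temperature in Ca2+-free Tyrode's (pH 7.4), then Ca2+ is injected to 5 mM final and the FLIPR signal recorded. AC50s are geometric means across ≥2 days.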

With `C[C@@H]1C[C@H](COc2ccc(S(=O)(=O)CCCS(C)(=O)=O)cc2)CN1C1CCc2c(C#N)cc(Cl)cc2C1` (single isomer, unassigned) [Compound 44, (6R or 6S)-3-chloro-6-[(2R,4S)-4-{[4-(3-methanesulfonylpropanesulfonyl)phenoxy]methyl}-2-methylpyrrolidin-1-yl]-5,6,7,8-tetrahydronaphthalene-1-carbonitrile], at APOL1 G2 [1], the pEC50 – broadly, the negative decadic logarithm of the EC50, by convention in mol/L – was 6.51. Also, the AC50 (commonly the concentration giving half of the maximal activity seen) at APOL1 G2 [2] came to 1380 nM.

As for `C[C@@H]1C[C@H](COc2ccc(S(=O)(=O)CCCS(C)(=O)=O)cc2)CN1C1CCc2c(C#N)cc(Cl)cc2C1` (single isomer, unassigned) [Compound 45, (6S or 6R)-3-chloro-6-[(2R,4S)-4-{[4-(3-methanesulfonylpropanesulfonyl)phenoxy]methyl}-2-methylpyrrolidin-1-yl]-5,6,7,8-tetrahydronaphthalene-1-carbonitrile], the pEC50 at APOL1 G2 [1] is 6.52. Also, the AC50 at APOL1 G2 [2] is 998 nM.

With `C[C@@H]1C[C@H](COc2ccc(S(=O)(=O)CCS(C)(=O)=O)cc2)CN1C1CCc2c(C#N)cc(Cl)cc2C1` (single isomer, unassigned) [Compound 47, (6S or 6R)-3-chloro-6-[(2R,4S)-4-{[4-(2-methanesulfonylethanesulfonyl)phenoxy]methyl}-2-methylpyrrolidin-1-yl]-5,6,7,8-tetrahydronaphthalene-1-carbonitrile], on APOL1 G2 [1], the pEC50 is < 5.48. The AC50 on APOL1 G2 [2] was found to be 926 nM.

On to `C[C@@H]1C[C@H](COc2ccc(S(=O)(=O)CCS(C)(=O)=O)cc2)CN1C1CCc2c(C#N)cc(Cl)cc2C1` (single isomer, unassigned) [Compound 48, (6R or 6S)-3-chloro-6-[(2R,4S)-4-{[4-(2-methanesulfonylethanesulfonyl)phenoxy]methyl}-2-methylpyrrolidin-1-yl]-5,6,7,8-tetrahydronaphthalene-1-carbonitrile], for which, at APOL1 G2 [1], the pEC50 is 6.40. The AC50 at APOL1 G2 [2] is 1130 nM.

For `C[C@@H]1C[C@H](COc2ccc(S(=O)(=O)CCS(C)(=O)=O)cc2)CN1C1CCc2ccc(Cl)cc2C1` (single isomer, unassigned) [Compound 50, (2R,4S)-1-[(2S or 2R)-7-chloro-1,2,3,4-tetrahydronaphthalen-2-yl]-4-{[4-(2-methanesulfonylethanesulfonyl)phenoxy]methyl}-2-methylpyrrolidine], at APOL1 G2 [1], the pEC50 is 6.46. At APOL1 G2 [2], the AC50 came to 1070 nM.

Take `C[C@@H]1C[C@H](COc2ccc(S(=O)(=O)CCS(C)(=O)=O)cc2)CN1C1CCc2ccc(Cl)cc2C1` (single isomer, unassigned) [Compound 51, (2R,4S)-1-[(2R or 2S)-7-chloro-1,2,3,4-tetrahydronaphthalen-2-yl]-4-{[4-(2-methanesulfonylethanesulfonyl)phenoxy]methyl}-2-methylpyrrolidine]: the pEC50 on APOL1 G2 [1] was 6.89. In addition, the AC50 on APOL1 G2 [2] came to 439 nM.

Turning to `C[C@@H]1C[C@H](COc2ccc(S(=O)(=O)CCCS(C)(=O)=O)cc2)CN1C1CCc2ccc(Cl)cc2C1` (single isomer, unassigned) [Compound 53, (2R,4S)-1-[(2R or 2S)-7-chloro-1,2,3,4-tetrahydronaphthalen-2-yl]-4-{[4-(3-methanesulfonylpropanesulfonyl)phenoxy]methyl}-2-methylpyrrolidine], the pEC50 on APOL1 G2 [1] was 6.55. In addition, the half-maximal activity concentration (AC50) at APOL1 G2 [2] came to 999 nM.

For `C[C@@H]1C[C@H](COc2ccc(S(=O)(=O)CCCS(C)(=O)=O)cc2)CN1C1CCc2ccc(Cl)cc2C1` (single isomer, unassigned) [Compound 54, (2R,4S)-1-[(2S or 2R)-7-chloro-1,2,3,4-tetrahydronaphthalen-2-yl]-4-{[4-(3-methanesulfonylpropanesulfonyl)phenoxy]methyl}-2-methylpyrrolidine], the pEC50 on APOL1 G2 [1] was 7.26. Also, at APOL1 G2 [2], the AC50 is 857 nM.

In the case of `C[C@@H]1C[C@H](COc2ccc(S(=O)(=O)CCO)cc2)CN1C1CCc2c(C#N)cc(Cl)cc2C1` (single isomer, unassigned) [Compound 56, (6R or 6S)-3-chloro-6-[(2R,4S)-4-{[4-(2-hydroxyethanesulfonyl)phenoxy]methyl}-2-methylpyrrolidin-1-yl]-5,6,7,8-tetrahydronaphthalene-1-carbonitrile], the pEC50 on APOL1 G2 [1] was 6.73. Moreover, the AC50 on APOL1 G2 [2] came to 714 nM.

As to `C[C@@H]1C[C@H](COc2ccc(S(=O)(=O)CCO)cc2)CN1C1CCc2c(C#N)cc(Cl)cc2C1` (single isomer, unassigned) [Compound 57, (6S or 6R)-3-chloro-6-[(2R,4S)-4-{[4-(2-hydroxyethanesulfonyl)phenoxy]methyl}-2-methylpyrrolidin-1-yl]-5,6,7,8-tetrahydronaphthalene-1-carbonitrile], the pEC50 on APOL1 G2 [1] is 6.58. Besides, the AC50 at APOL1 G2 [2] came out at 802 nM.

With `C[C@@H]1C[C@H](COc2ccc(S(=O)(=O)CCO)cc2)CN1C1CCc2ccc(C#N)cc2C1` (single isomer, unassigned) [Compound 59, (7R or 7S)-7-[(2R,4S)-4-{[4-(2-hydroxyethanesulfonyl)phenoxy]methyl}-2-methylpyrrolidin-1-yl]-5,6,7,8-tetrahydronaphthalene-2-carbonitrile], the pEC50 on APOL1 G2 [1] is 6.42. Moreover, on APOL1 G2 [2], the AC50 was determined as 794 nM.

In the case of `C[C@@H]1C[C@H](COc2ccc(S(=O)(=O)CCO)cc2)CN1C1CCc2ccc(C#N)cc2C1` (single isomer, unassigned) [Compound 60, (7S or 7R)-7-[(2R,4S)-4-{[4-(2-hydroxyethanesulfonyl)phenoxy]methyl}-2-methylpyrrolidin-1-yl]-5,6,7,8-tetrahydronaphthalene-2-carbonitrile], at APOL1 G2 [1], the pEC50 was 7.43. For the same compound, the AC50 at APOL1 G2 [2] is 477 nM.

Turning to `C[C@@H]1C[C@H](COc2ccc(S(=O)(=O)CCO)cc2)CN1C1CCc2ccc(Cl)cc2C1` (single isomer, unassigned) [Compound 62, 2-(4-{[(3S,5R)-1-[(2R or 2S)-7-chloro-1,2,3,4-tetrahydronaphthalen-2-yl]-5-methylpyrrolidin-3-yl]methoxy}benzenesulfonyl)ethan-1-ol], on APOL1 G2 [1], the pEC50 was 6.70. For the same compound, the AC50 at APOL1 G2 [2] turned out to be 462 nM.

As to `C[C@@H]1C[C@H](COc2ccc(S(=O)(=O)CCO)cc2)CN1C1CCc2ccc(Cl)cc2C1` (single isomer, unassigned) [Compound 63, 2-(4-{[(3S,5R)-1-[(2S or 2R)-7-chloro-1,2,3,4-tetrahydronaphthalen-2-yl]-5-methylpyrrolidin-3-yl]methoxy}benzenesulfonyl)ethan-1-ol], on APOL1 G2 [1], the pEC50 is 7.61. Further, the AC50 on APOL1 G2 [2] stood at 188 nM.

Consider `C[C@@H]1CN(CCc2cccc(C#N)c2)C[C@H]1COc1ccc(S(C)(=O)=NCCS(C)(=O)=O)cc1` (single isomer, unassigned) [Compound 69], for which the pEC50 on APOL1 G2 [1] is 6.42. Besides, the AC50 at APOL1 G2 [2] came to 346 nM.

Take `C[C@@H]1CN(CCc2cccc(C#N)c2)C[C@H]1COc1ccc(S(C)(=O)=NCCS(C)(=O)=O)cc1` (single isomer, unassigned) [Compound 70]: the pEC50 on APOL1 G2 [1] was 6.47. Moreover, the AC50 on APOL1 G2 [2] was 236 nM.

Turning to `CN=S(C)(=O)c1ccc(OC[C@@H]2CN(CCc3cccc(C#N)c3)C[C@H]2C)cn1` (single isomer, unassigned) [Compound 72], the pEC50 at APOL1 G2 [1] is 6.66. For the same compound, the AC50 on APOL1 G2 [2] amounted to 183 nM.

Turning to `CN=S(C)(=O)c1ccc(OC[C@@H]2CN(CCc3cccc(C#N)c3)C[C@H]2C)cn1` (single isomer, unassigned) [Compound 73], the pEC50 at APOL1 G2 [1] is 6.43. Further, on APOL1 G2 [2], the AC50 is 351 nM.
